Experiment: gradient 5% acetonitrile 3 min, to 50% in 2 min, to 85% in 15 min, held 3 min, 100 µL/min
Conditions: column: Zorbax Extend-C18 2.1 x 50 mm; eluents: water / acetonitrile, 0.1% formic acid
Summary of the method: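 Over 3 months, pure standards in mixtures of ~100 molecules were run by HPLC coupled to a quadrupole time-of-flight mass spectrometer in positive and negative ionization mode. The column was a Zorbax Extend-C18 (2.1 × 50 mm, 1.8 μm) at 100 μL/min, eluted with water and acetonitrile each holding 0.1% formic acid, with 40 μL dead and 900 μL dwell volumes. Retention time was determined from adduct peaks chosen by software and checked manually.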

RP-LC retention time	SMILES
574 s	O=C(CCC1CCN(c2cc(NC3CC3)ncn2)CC1)NCCN1CCc2ccccc2C1
820 s	CN1c2cc(Cl)ccc2C(=O)NC12CCN(C(=O)NCc1ccc(F)cc1)CC2
754 s	COc1ccc(OC)c(CNC(=O)C2CCN(c3ncnc4c3oc3ccccc34)CC2)c1
819 s	Cc1cccc(-c2nc(N3CCCC3)ncc2C(=O)O)c1
767 s	Cc1ccc(S(=O)(=O)N2CC3CN(C(=O)NCc4ccco4)CC(C2)O3)cc1
998 s	CSc1ccccc1NC(=O)C(=O)NCC1CCN(C(=O)Oc2ccccc2)CC1
616 s	COc1ccc(-c2cnn3c(C)cc(C)nc23)cc1S(=O)(=O)NCCN(C)C
778 s	CC1(C(=O)NC2CCCC2)Cn2cnc(C(=O)NCc3ccccc3F)c2C(=O)N1C1CC1 (stereo unspecified)
991 s	CCCCOc1ccccc1C(=O)N(Cc1ccc(Br)o1)C1CCS(=O)(=O)C1 (stereo unspecified)
941 s	CC(NC(=O)c1ccco1)c1nc(-c2ccc(N3CCCC3)cc2)no1 (stereo unspecified)
569 s	Cc1nnc(N2CCC(C(=O)N3CCN(c4ccccn4)CC3)CC2)c2nn(-c3ccccc3)c(C)c12
702 s	COC(=O)c1c(C)[nH]c(C(=O)N2CCC(CC(=O)N3CCN(c4ccc(OC)cc4)CC3)CC2)c1C
686 s	Cc1ccc2[nH]c(=O)c(CCC(=O)N3CCN(c4ncccn4)CC3)cc2c1
828 s	O=S(=O)(Nc1ccc(N2CCOCC2)cc1)c1ccc(-c2nnc(C3CCC3)o2)o1
1190 s	CCCCCn1c(=O)c2c(nc3n2CCCCN3c2ccc(OCC)cc2)n(C)c1=O
797 s	CN1C(=O)CCC2(CNC(=O)Nc3ccccc3F)CCCC=C12 (stereo unspecified)
666 s	Cn1c(CNC(=O)C2CCC2)nc2c1CN(S(=O)(=O)c1ccc(Cl)s1)CC2
626 s	Cc1ccc(Cl)cc1N1CCN(CC(O)COc2ccccc2[N+](=O)[O-])CC1 (stereo unspecified)
713 s	Cc1cc(N2CCCCC2)nc(N2CCN(C(=O)C3CCCC3)CC2)n1
943 s	COC(=O)C1=CN(c2cc(C)cc(C)c2)c2ccccc2S1(=O)=O
749 s	N#Cc1cccc(C(=O)N2CCN(c3cc(-c4ccccc4)[nH]n3)CC2)c1
974 s	CCCc1noc(-c2ccnc(-n3ncc(C(=O)N4CCSCC4)c3C)c2)n1
690 s	CCOC(=O)c1c(C)c(S(=O)(=O)N2CCN(c3ccccn3)CC2)c(C)n1C
683 s	Cc1nc(C)c(CCNS(=O)(=O)c2cc(Cl)ccc2Cl)s1

RP-LC retention time	SMILES
750 s	CCCCN(C)C(=O)C1CCCN(c2ccc(-c3ccc(C)cc3)nn2)C1 (stereo unspecified)
970 s	O=C(OCc1nc2ccccc2s1)c1ccc([N+](=O)[O-])s1
680 s	O=C(NCCCN1CCCC1)c1ccc(-c2noc(-c3ccccc3)n2)s1
976 s	O=C(Cn1c(N2CCCCC2)nc2ccccc2c1=O)N1CCN(c2ccccc2)CC1
887 s	Cc1c(C(=O)C(=O)NCCc2ccccc2)c2ccccc2n1C
735 s	O=C(CSc1ccc(N2CCN(c3ccccc3)CC2)nn1)NCc1ccco1
600 s	O=C1c2ccccc2-c2onc3c(N4CCN(c5ccccn5)CC4)cc(N4CCCCC4)c1c23
581 s	O=C(NCCN1CCCCC1)C1CCN(c2nc3cccnc3s2)CC1
664 s	O=C(NCc1cccc(Cl)c1)C1CCCN(c2nc3ncccc3n3cccc23)C1 (stereo unspecified)
628 s	COc1ccc(CCN2CCC(CNS(=O)(=O)c3ccc4c(c3)CCCC(=O)N4)CC2)cc1
915 s	COc1cc(Cl)ccc1C(=O)Nc1ccc2c(c1)Sc1ncccc1C(=O)N2C
845 s	Cc1cccc(C)c1NC(=O)Cn1c(C)nc2onc(C)c2c1=O
789 s	CCc1cc(C2CCCN2C(=O)NCCc2ccccc2)on1 (stereo unspecified)
826 s	COc1ccccc1NC(=O)Cn1nc2cc(C)nc(-c3cccc(F)c3)n2c1=O
623 s	CCOC(=O)C1=C(CN2CCN(C(C)CC)CC2)NC(=O)NC1c1ccc(F)cc1 (stereo unspecified)
995 s	Cc1ccc(CNC(=O)C2(C)CCCN(C(=O)Nc3ccccc3Cl)C2)cc1 (stereo unspecified)
1130 s	COc1ccc(-c2csc(C)n2)cc1S(=O)(=O)N1CC=C(c2ccccc2)CC1
826 s	CCc1ccccc1N1C(=O)CN(S(=O)(=O)CC)CC1(C)C(=O)NC1CCCC1 (stereo unspecified)
623 s	COCC(=O)NC1CCC12CCN(S(=O)(=O)c1cn(C)cn1)CC2 (stereo unspecified)
1010 s	Cc1nnc(-c2coc(S(=O)(=O)N3CCC(Cc4ccccc4)CC3)c2)o1
559 s	O=C(CCc1ccc2nc(-c3ccccc3)[nH]c2c1)N1CCC(N2CCCCC2)CC1
707 s	Cc1ccc(S(=O)(=O)N2CCCC(Cn3c(C)nc4cccnc43)C2)cc1 (stereo unspecified)
664 s	O=S(=O)(CCc1ccccc1)N1CCN(c2ccc3nncn3n2)CC1
958 s	Cc1nc(-c2cn(C(C)C)c3ncccc23)sc1C(=O)N1CCCCC1

Continued, molecule first:

SMILES	RP-LC retention time
O=C1CN(C(=O)CN2CCCCC2)C(c2ccccc2)c2cc(Br)ccc2N1 (stereo unspecified)	656 s
CCCNC(=O)N1CCC(c2noc(-c3ccncc3)n2)C1 (stereo unspecified)	642 s
Clc1cncc(N2CCNCC2)n1	614 s
COc1ccc(CNC(=O)Cn2ccc3ccc(-c4nnc(C)o4)cc32)cc1	1080 s
O=C(c1ccc(F)cc1)N1CCC(n2nc(-c3ccsc3)ccc2=O)CC1	816 s
O=C(Nc1cc(-c2cccs2)no1)C1(c2ccccc2)CC1	1050 s
CC(C)NC(=O)c1cc(-c2ccc(F)cc2)cn1C	926 s
COc1cccc(CCNC(=O)CN2C(=O)CSc3cccn3-c3ccccc32)c1	900 s
O=C(Nc1nc(-c2cccc3ccccc23)cs1)C1CCCO1 (stereo unspecified)	978 s
Cn1nc(C(=O)Nc2ccccc2F)cc1C(F)(F)F	951 s
Cc1ccc(-c2csc(-c3cccn3CC(=O)NCc3ccco3)n2)cc1	1100 s
COCCn1ccc2nc(C)c(C(=O)NCCCc3ccco3)cc2c1=O	665 s
Cc1cc(C)cc(-c2nc(C3CC(=O)N(c4ccc(Cl)cc4)C3)no2)c1 (stereo unspecified)	1200 s
Cc1cc2c(=O)n(CC(=O)Nc3ccc(Cl)cc3C)ccc2s1	833 s
CC1Oc2ccc(-c3csc(NC(=O)c4ccncc4)n3)cc2N(C)C1=O (stereo unspecified)	766 s
COc1ccc(-c2noc(-c3ccc(NCCCN4CCC(N5CCCCC5)CC4)nn3)n2)cc1	603 s
c1ccc2sc(SCc3cn4cccnc4n3)nc2c1	622 s
Cc1ccn2c(Nc3ccc4c(c3)OCO4)c(-c3ccc(O)cc3)nc2c1	629 s
Cc1cc(C)nc(Nc2nc(C(=O)NCCn3nc(-c4ccco4)ccc3=O)cs2)n1	693 s
CC(=O)NCc1ccc(-c2noc(-c3ccc(Br)cc3)n2)s1	938 s
Cc1ccc(CC(=O)NC2CCN(c3ccc(F)cc3)C2=O)cc1 (stereo unspecified)	828 s
O=C(Cn1cnc2nc(-c3cccnc3)ncc2c1=O)Nc1ccc2c(c1)OCO2	826 s

SMILES	RP-LC retention time
Cc1cc(C(=O)Nc2nc3c(s2)CN(C(=O)c2snnc2C)CC3)no1	660 s
COc1ccc(C2=Nc3ccccc3N(CC(=O)Nc3cc(OC)ccc3OC)C(=O)C2)cc1	1020 s
Cc1ccc(NC(=O)CN2C(=O)CCc3cc(Br)ccc32)cc1	931 s
Cc1ccc2oc(C(=O)NCCc3cccs3)cc2n1	640 s
O=C(Nc1ccc(OCc2nnc(-c3ccccc3)o2)cc1)c1cccnc1Cl	793 s
O=C(Nc1ccccc1F)[C@@H]1COCC(=O)N1Cc1cccs1	741 s
CC(C)(C)C(O)CCNC(=O)C1(c2ccc(F)cc2)CC1 (stereo unspecified)	823 s
Cc1cccc(C2(O)C(=O)N(Cc3ccc(C#N)cc3)c3ccccc32)c1 (stereo unspecified)	825 s
NCCc1ccc(S(=O)(=O)F)cc1	653 s
COc1ccc(Cc2nc(-c3ccc4oc(C)nc4c3)no2)cc1OC	892 s
O=c1[nH]c2ccc(NCc3ccccc3)cc2[nH]1	571 s
CC(C)C(=O)NCCc1csc(C2CCCN(C(=O)C3CCCO3)C2)n1 (stereo unspecified)	622 s
COc1ccc(CNC(=O)c2c(O)c3cccnc3[nH]c2=O)cc1OC	804 s
O=C(O)c1nnn(-c2cccc(F)c2)c1-c1cccnc1	614 s
O=C(CCc1c(-c2ccc(Br)cc2)nc2ccccn12)NCCC1=CCCCC1	753 s
Cc1ccc(CNC(=O)c2cc3c(n(-c4ccc(C(F)(F)F)cc4)c2=O)CCCC3=O)o1	634 s
CCOc1ccc(NC(=O)CSC2CCCCC2)cc1	975 s
COc1cccc(-c2nnc(Cc3nc(-c4ccc(Cl)cc4)no3)o2)c1	1100 s
O=C(NCCn1nnc2cc(C(=O)N3CCCCC3)ccc21)NC1CCCCC1	707 s
COCCn1ccc2nc(C)c(C(=O)NCc3cccs3)cc2c1=O	656 s
CC(C)Cn1cc(CCNC(=O)c2c(F)cccc2F)c2cccnc21	788 s
